Patent US20260092300A1, “MINIMUM INHIBITORY CONCENTRATION RECOGNITION METHOD, APPARATUS AND DEVICE, AND STORAGE MEDIUM” (AUTOBIO LABTEC INSTRUMENTS CO., LTD., priority 2022, published 2026)
Values after ≈ are worked out from the molar mass of the structure shown.

Tests used:
Format in all cases: cell-based
[1] = test system: ATCC25922 Escherichia coli; assay: MIC determined by the method (lensless imaging, Siamese neural network image similarity); settings: incubation 2 hours to 4 hours at 37±2° C.
Text: (§1) The antimicrobial susceptibility test plate is a commonly used experimental equipment in antimicrobial susceptibility tests, which consists of multiple regularly arranged microwells. In practice, the antimicrobial susceptibility test plate is of different specifications, generally including a 96-well plate and a 128-well plate. In the implementation, the operator first prepares the bacterial suspension of a sample (that is, the to-be-tested bacterial strain); opens an antibiotic-coated antimicrobial susceptibility test plate, of which the microwells are pre-coated with the to-be-tested antibiotic with different gradient concentrations (that is, the preset gradient concentrations), where the concentration gradients of the antibiotic may be designed according to the rules of the clinical laboratory standard institute; adds the bacterial suspension to the microwells via a sample loading well; and places the antimicrobial susceptibility test plate on the imaging platform upon completing the sample loading. The processor controls the imaging platform to perform lensless imaging on the microwells at an initial time instant immediately after the sample is added (that is, the time instant of not completing inhibition) and a time instant immediately after the preset incubation time period (that is, the time instant of completing bacteria inhibition) and saves the data, so as to obtain the testing images and the test control images of the to-be-tested bacterial strain. Alternatively, the processor performs lensless imaging on the microwells and the control microwells at the time instant immediately after the preset incubation time period and saves the data.
(§2) For example, the determination result of the minimum inhibitory concentrations of two commonly used clinical quality control strains (ATCC25922 Escherichia coli and ATCC25923 Staphylococcus aureus) through the method according to the embodiments validates the feasibility of the method. Preparation of the bacterial strain includes: sub-culturing the strain for the second to fourth generations for standby; selecting colonies to prepare a bacterial suspension with a McFarland 0.5 standard; pre-coating antibiotic in the microwells of the antimicrobial susceptibility test plate (the concentration of the antibiotic is prepared according to CLSI standard); mixing the bacterial suspension with agarose at a concentration of 0.6% to 1.0% and a temperature of 37° C. to 40° C. in a dilution ratio of 1:300 to 1:500; adding the mixture sample respectively to the microwells by centrifugation; and then placing the antimicrobial susceptibility test plate in an incubator (37±2° C.) to incubate for 2 hours to 4 hours. Data collection includes: when the incubation is completed, placing the antimicrobial susceptibility test plate on the lensless imaging platform to take the images of the wells (that is, microwells) and recording the images corresponding to different antibiotic concentrations, where the minimum inhibitory concentration (MIC) determined by using the method in the embodiments is obtained based on the images. As shown in Table 1 and Table 2, it can be seen from the MIC results determined through the method and antimicrobial susceptibility results of the clinical gold standard broth microdilution test (BMD) that the MIC results determined through the method according to the embodiment are more accurate and reliable, and the MIC results are determined in 2 hours to 4 hours through the method according to the embodiment, which is more efficient.

[2] = test system: ATCC25922 Escherichia coli; assay: Broth microdilution test (BMD); settings: clinical gold standard broth microdilution test
[3] = test system: ATCC25923 Staphylococcus aureus; assay: MIC determined by the method (lensless imaging, Siamese neural network image similarity); settings: incubation 2 hours to 4 hours at 37±2° C.
Text: as §1, §2

[4] = test system: ATCC25923 Staphylococcus aureus; assay: Broth microdilution test (BMD); settings: clinical gold standard broth microdilution test

Molecule | MIC [1] | MIC [2] | MIC [3] | MIC [4] | The method (MIC) [1] | BMD (MIC) [2]
NCC[C@H](O)C(=O)N[C@@H]1C[C@H](N)[C@@H](O[C@H]2O[C@H](CN)[C@@H](O)[C@H](O)[C@H]2O)[C@H](O)[C@H]1O[C@H]1O[C@H](CO)[C@@H](O)[C@H](N)[C@H]1O [Amikacin] | 4 µg/mL (≈ 6.83 µM) | 1 to 4 µg/mL (≈ 1.71 to 6.83 µM) | – | – | – | –
CC1(C)S[C@@H]2[C@H](NC(=O)[C@H](N)c3ccccc3)C(=O)N2[C@H]1C(=O)O [Ampicillin] | 4 µg/mL (≈ 11.4 µM) | 4 µg/mL (≈ 11.4 µM) | 1 µg/mL (≈ 2.86 µM) | 1 µg/mL (≈ 2.86 µM) | – | –
CO[C@@]1(NC(=O)Cc2cccs2)C(=O)N2C(C(=O)O)=C(COC(N)=O)CS[C@@H]21 [Cefoxitin] | 1 µg/mL (≈ 2.34 µM) | 2 to 4 µg/mL (≈ 4.68 to 9.36 µM) | 4 µg/mL (≈ 9.36 µM) | 1 to 4 µg/mL (≈ 2.34 to 9.36 µM) | – | –
CC[C@H]1OC(=O)[C@H](C)[C@@H](O[C@H]2C[C@@](C)(OC)[C@@H](O)[C@H](C)O2)[C@H](C)[C@@H](O[C@@H]2O[C@H](C)C[C@H](N(C)C)[C@H]2O)[C@](C)(O)C[C@@H](C)C(=O)[C@H](C)[C@@H](O)[C@]1(C)O [Erythromycin] | – | – | 0.5 µg/mL (≈ 0.681 µM) | 0.25 to 0.5 µg/mL (≈ 0.341 to 0.681 µM) | – | –
C[C@@H](O)[C@H]1C(=O)N2C(C(=O)O)=C(SCCN=CN)C[C@H]12 [Imipenem] | 0.12 µg/mL (≈ 0.401 µM) | 0.06 to 0.25 µg/mL (≈ 0.2 to 0.835 µM) | – | – | – | –
Gentamycin | – | – | – | – | 0.25 µg/mL | 0.25 to 0.5 µg/mL
